Laboratory results published in US7262215B2, “N-carbacycle monosubstituted indolocarbazoles as protein kinase inhibitors” (NAD AG, priority 2001, dated 2007).

How the values were obtained:
Assay type in all cases: biochemical
Conditions in all cases: 10 μM compound; NA = not active
His tagged ERK2 = His tagged ERK2 (Homo sapiens, UniProt P28482); experiment: Extracellular signal Regulated Kinase 2 inhibition assay (ERK2), radioactivity-based
Protocol: Inhibition of Extracellular Signal Regulated Kinase 2 (ERK 2) Activity
(§1) The ERK2 kinase activity assay utilizes a radioactivity-based format in a 96-well PCR plate with radioactive readout. The ERK2 activity was assayed in a 25 μL assay mixture containing 25 mM HEPES (pH 7.0), 250 μM ATP, […], 1 mM DTT, 2% DMSO, 150 ng/mL Myelin Basic Protein (MBP, Sigma M-1891), and 13.6 ng/mL His tagged ERK2 (specific activity=38.1 nmol/min*mg). Compounds were screened for inhibition of the ERK2 kinase activity at a concentration of 10 μM. The kinase reaction was allowed to proceed at 37° C. for 30 minutes, then reaction was stopped by the addition of 5 μL of 0.5M EDTA (pH 8). 15 μL of each solution were then spotted onto the corresponding square of a filtermat (8×12 glassfibre mat 90×120 mm. PE-Wallac 1450–421). The filtermat was allowed to dry and washed once with 10% TCA, 2% PPA, 500 mM NaCl each for 30 minutes at rt. Two further washings in 10% TCA and 2% PPA for 30 minutes were performed, then a final 30 minute wash in 99% EtOH at rt was done and the filtermat was air dried. The dry filtermat was then placed in a sample bag with a Meltilex sheet (Melt-on scintillator sheets […], PE-Wallac 1450–441 for filtermat A) over the filtermat. The bag was trimmed to fit into the microplate heatsealer (PE-Wallac 1495–021). The heatsealer is used to melt the Meltilex on the filtermat. The bag containing the filtermat and the melted Meltilex was then placed into a filter cassette and counted using the Microbeta Jet Scintillation and Luminescence Counter PE-Wallac 1450.

PKC (rat brain) = experiment: Protein Kinase C inhibition assay (PKC), radioactivity-based
Protocol: as §1
Inhibition of Protein Kinase C Activity
The PKA kinase activity assay utilizes a radioactivity-based format in a 96-well PCR plate with radioactive readout. The PKA activity was assayed in a 25 μL assay mixture containing 25 mM HEPES (pH 7.0), 250 μM ATP, 10 mM MgCl2, 1 mM DTT, 1 mM EDTA (pH 8), 2 mM CaCl2, 2% DMSO, 250 ng/mL Histone H1 (Roche 1 004 875), and 165 ng/mL PKC (rat brain, Calbiochem 539494, specific activity=1600 nmol/min*mg), Compounds were screened for inhibition of the PKC kinase activity at a concentration of 10 μM. The kinase reaction was allowed to proceed at 37° C. for 30 minutes, then the reaction was stopped by addition of 5 μL of 0.5M EDTA (pH 8). The remainder of the protocol is identical to the one reported for ERK2.

GSK3β = molecular target: T1, GSK3β (Homo sapiens, UniProt P49841); experiment: Glycogen Synthase Kinase 3β inhibition assay, radioactivity-based
T1 construct: purchased Upstate Discovery
Protocol: Inhibition of Glycogen Synthase Kinase 3, Activity
The GSK3, kinase activity assay utilizes a radioactivity-based format in a 96-well PCR plate with radioactive readout. The GSK3β activity was assayed in a 25 μL assay mixture containing 8 mM HEPES (pH 7.0), 250 μM ATP, 0.2 mM EDTA (pH 8), 2% DMSO, 250 ng/mL Myelin Basic Protein (MBP, Sigma M-1891), and 12 ng/mL GSK3 (Upstate Discovery, specific activity=607 nmol/min*GS2 peptide, concentration of 6.05 mg/mL). Compounds were screened for inhibition of the GSK3 P kinase activity at a concentration of 10 μM. The kinase reaction was allowed to proceed at 37° C. for 30 minutes, then the reaction was stopped by addition of 5 μL of 0.5M EDTA (pH 8).

[1] = molecular target: T2, PKA (catalytic subunit, bovine heart) (Bos taurus, UniProt P00517); experiment: Protein Kinase A inhibition assay (PKA), radioactivity-based
T2 construct: PKA (catalytic subunit, bovine heart, Calbiochem 539486); purchased Calbiochem 539486; host or cells: bovine heart (tissue-derived)
Protocol: as §1
Inhibition of Protein Kinase A Activity
The PKA kinase activity assay utilizes a radioactivity-based format in a 96-well PCR plate with radioactive readout. The PKA activity was assayed in a 25 μL assay mixture containing 25 mM HEPES (pH 7.0), 250 μM ATP, 10 mM MgCl2, 1 mM DTT, 1 mM EBTA (pH 8), 2% DMSO, 250 ng/mL Histone H2B (Roche 223 514), and 2 ng/mL PKA (catalytic subunit, bovine heart, Calbiochem 539486, specific activity=1170 μmol/min*μg). Compounds were screened for inhibition of the PKA kinase activity at a concentration of 10 μM. The kinase reaction was allowed to proceed at 37° C. for 30 minutes, then the reaction was stopped by addition of 5 μL of 0.5M EDTA (pH 8). The remainder of the protocol is identical to the one reported for ERK2.

T1 sequence (P49841 whole entry, species assumed): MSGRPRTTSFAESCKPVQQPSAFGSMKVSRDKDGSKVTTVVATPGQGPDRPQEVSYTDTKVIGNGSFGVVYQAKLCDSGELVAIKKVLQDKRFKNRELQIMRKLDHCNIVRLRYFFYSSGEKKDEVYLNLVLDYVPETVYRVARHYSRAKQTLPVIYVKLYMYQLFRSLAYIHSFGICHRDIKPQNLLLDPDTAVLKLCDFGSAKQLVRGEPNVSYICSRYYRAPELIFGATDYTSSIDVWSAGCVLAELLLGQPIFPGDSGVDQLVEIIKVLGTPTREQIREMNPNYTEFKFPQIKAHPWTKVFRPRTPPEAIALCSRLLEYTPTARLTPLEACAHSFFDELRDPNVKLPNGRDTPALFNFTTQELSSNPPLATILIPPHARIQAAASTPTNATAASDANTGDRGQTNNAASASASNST
His tagged ERK2, sequence (P28482 whole entry): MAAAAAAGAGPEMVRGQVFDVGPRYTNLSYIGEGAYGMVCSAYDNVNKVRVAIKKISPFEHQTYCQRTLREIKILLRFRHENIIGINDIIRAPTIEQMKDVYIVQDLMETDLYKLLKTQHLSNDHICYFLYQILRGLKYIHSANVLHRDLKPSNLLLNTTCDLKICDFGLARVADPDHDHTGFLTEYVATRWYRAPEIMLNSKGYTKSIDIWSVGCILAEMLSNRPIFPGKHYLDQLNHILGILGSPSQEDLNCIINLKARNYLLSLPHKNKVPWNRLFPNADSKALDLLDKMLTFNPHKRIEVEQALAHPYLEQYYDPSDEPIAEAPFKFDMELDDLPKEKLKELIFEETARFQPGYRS

inhibition at 10 µM (His tagged ERK2) [%]	% Inhibition PKC (PKC (rat brain)) [%]	inhibition at 10 µM (GSK3β) [%]	inhibition at 10 µM [1] [%]	Structure (SMILES)
24.3	67.47	18.4		N[C@@H]1C=CC(n2c3ccccc3c3c4c(c5c6ccccc6[nH]c5c32)C(=O)NC4=O)C1 (mixture of isomers) [NAD116]
97.8	81.34	69.8	98	N[C@H]1C=CC(n2c3ccccc3c3c4c(c5c6ccccc6[nH]c5c32)C(=O)NC4=O)C1 (mixture of isomers) [NAD040]
60	68.74	25		CCOC(=O)N1C(=O)c2c(c3c4ccccc4n(C4C=C[C@H](NC(C)=O)C4)c3c3[nH]c4ccccc4c23)C1=O (mixture of isomers) [NAD117]
57.2	41.98	52.2	43.4	O=C1NC(=O)c2c1c1c3ccccc3[nH]c1c1c2c2ccccc2n1C1C=C[C@H](Cl)CC1 (mixture of isomers) [NAD085]
43.2	84.32	60.8	17.3	CC(=O)O[C@@H]1C=CC(n2c3ccccc3c3c4c(c5c6ccccc6[nH]c5c32)C(=O)NC4=O)CC1 (mixture of isomers) [NAD135]
41.6	111.91	54.1	26.5	O=C1NC(=O)c2c1c1c3ccccc3[nH]c1c1c2c2ccccc2n1C1C=C[C@H](Nc2ccccc2)CC1 (mixture of isomers) [NAD148]
37.4	58.82	61.2	19.9	O=C1NC(=O)c2c1c1c3ccccc3[nH]c1c1c2c2ccccc2n1C1C=C[C@H](O)C1 (mixture of isomers) [NAD162]
	55.37	20.2		CN1C(=O)c2c(c3c4ccccc4n(C4C[C@H](O)[C@@H](O)[C@H]4O)c3c3[nH]c4ccccc4c23)C1=O (mixture of isomers) [NAD157]
93.3	55.37	94.1	35.2	O=C1NC(=O)c2c1c1c3ccccc3[nH]c1c1c2c2ccccc2n1C1CC[C@H](O)[C@@H](O)[C@H]1O (mixture of isomers) [NAD149]
23.3	72.37	30.2		CC(=O)O[C@H]1CC(n2c3ccccc3c3c4c(c5c6ccccc6[nH]c5c32)C(=O)NC4=O)[C@H](O)[C@@H]1O (mixture of isomers) [NAD160]
84.2	45.48	83.4	18.8	O=C1NC(=O)c2c1c1c3ccccc3[nH]c1c1c2c2ccccc2n1C1C=C[C@@H](O)C1 (mixture of isomers) [NAD006]
	102.77			COc1ccc(CN2C(=O)c3c(c4c5ccccc5n(C5CCC(O)CC5)c4c4[nH]c5ccccc5c34)C2=O)cc1 (centres unmarked) [NAD133]
53.4	52.00	25.4	17.1	CC(=O)O[C@H]1C=CC(n2c3ccccc3c3c4c(c5c6ccccc6[nH]c5c32)C(=O)NC4=O)CC1 (mixture of isomers) [NAD106]
